Measured values reported in PubChem BioAssay AID1918945 (Molecular Pharmacology Branch, DTP, NCI, 2023).
Values joined by “and” are separate entries in the source; they are usually repeats but may differ in a detail not shown here. Equal entries are not always repeated.

System: 883617-216-R-J1-PDC complex spheroid viability
Test: Anticancer human tumor 883617-216-R-J1-PDC patient-derived bladder carcinoma cell line growth inhibition
Conditions: for viability, T/C: stronger effect = lower value
Method in brief: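 Drug combinations with the LSD1 inhibitor iadademstat tested on tumor cells co-cultured as spheroids with endothelial cells and mesenchymal stem cells. Concentrations descended in half-log increments from clinical Cmax or 10 microM.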

[1] = curve of first compound, second compound 0.1 µM
[2] = curve of first compound, second compound 0.316 µM
[3] = curve of first compound, second compound 1 µM
[4] = curve of first compound, second compound 3.16 µM
[5] = curve of first compound, second compound 10 µM
[6] = second compound 0.1 µM, first compound 0.00316 µM
[7] = second compound 0.1 µM, first compound 0.01 µM
[8] = second compound 0.1 µM, first compound 0.0316 µM
[9] = second compound 0.1 µM, first compound 0.1 µM
[10] = second compound 0.1 µM, first compound 0.316 µM
[11] = second compound 0.1 µM, first compound 1 µM
[12] = second compound 0.316 µM, first compound 0.00316 µM
[13] = second compound 0.316 µM, first compound 0.01 µM
[14] = second compound 0.316 µM, first compound 0.0316 µM
[15] = second compound 0.316 µM, first compound 0.1 µM
[16] = second compound 0.316 µM, first compound 0.316 µM
[17] = second compound 0.316 µM, first compound 1 µM
[18] = second compound 1 µM, first compound 0.00316 µM
[19] = second compound 1 µM, first compound 0.01 µM
[20] = second compound 1 µM, first compound 0.0316 µM
[21] = second compound 1 µM, first compound 0.1 µM
[22] = second compound 1 µM, first compound 0.316 µM
[23] = second compound 1 µM, first compound 1 µM
[24] = second compound 3.16 µM, first compound 0.00316 µM
[25] = second compound 3.16 µM, first compound 0.01 µM
[26] = second compound 3.16 µM, first compound 0.0316 µM
[27] = second compound 3.16 µM, first compound 0.1 µM
[28] = second compound 3.16 µM, first compound 0.316 µM
[29] = second compound 3.16 µM, first compound 1 µM
[30] = second compound 10 µM, first compound 0.00316 µM
[31] = second compound 10 µM, first compound 0.01 µM
[32] = second compound 10 µM, first compound 0.0316 µM
[33] = second compound 10 µM, first compound 0.1 µM
[34] = second compound 10 µM, first compound 0.316 µM
[35] = second compound 10 µM, first compound 1 µM
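Also: exposure lasted seven days after three days of spheroid growth.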
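For viability, T/C in this document: 100% = DMSO vehicle control luminescence.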

Compound: Nc1ncn(C2CC(O)C(CO)O2)c(=O)n1 (stereo not drawn) + NC1CC1c1ccc(-c2cccc(O)c2)cc1
- IC50 [1]: > 1000 nM
- IC50 [2]: > 1000 nM
- IC50 [3]: > 1000 nM
- IC50 [4]: > 1000 nM
- IC50 [5]: > 1000 nM
- viability, T/C [6]: 104%
- viability, T/C [7]: 101%
- viability, T/C [8]: 87.3%
- viability, T/C [9]: 75.2%
- viability, T/C [10]: 64.7%
- viability, T/C [11]: 56.8%
- viability, T/C [12]: 110%
- viability, T/C [13]: 108%
- viability, T/C [14]: 87.5%
- viability, T/C [15]: 76.5%
- viability, T/C [16]: 67.7%
- viability, T/C [17]: 65.1%
- viability, T/C [18]: 110%
- viability, T/C [19]: 122%
- viability, T/C [20]: 96.8%
- viability, T/C [21]: 83%
- viability, T/C [22]: 65.9%
- viability, T/C [23]: 56.1%
- viability, T/C [24]: 107%
- viability, T/C [25]: 114%
- viability, T/C [26]: 92.9%
- viability, T/C [27]: 74.8%
- viability, T/C [28]: 60.5%
- viability, T/C [29]: 51.8%
- viability, T/C [30]: 107%
- viability, T/C [31]: 86.5%
- viability, T/C [32]: 74%
- viability, T/C [33]: 64.5%
- viability, T/C [34]: 61.7%
- viability, T/C [35]: 52.1%

Compound: Nc1ncn(C2CC(O)C(CO)O2)c(=O)n1 (stereo not drawn)
- viability, T/C (compound 0.00316 µM): 103% and 98.2%
- viability, T/C (compound 0.01 µM): 99.5% and 83.4%
- viability, T/C (compound 0.0316 µM): 96.5% and 72.9%
- viability, T/C (compound 0.1 µM): 86.3% and 58.4%
- viability, T/C (compound 0.316 µM): 73.2% and 54.2%
- viability, T/C (compound 1 µM): 67.8% and 49.4%
- IC50 (curve of compound): > 1000 nM and 870 nM

Compound: CC1(C)CCC(CN2CCN(c3ccc(C(=O)NS(=O)(=O)c4ccc(NCC5CCOCC5)c([N+](=O)[O-])c4)c(Oc4cnc5[nH]ccc5c4)c3)CC2)=C(c2ccc(Cl)cc2)C1 + NC1CCC(NC2CC2c2ccccc2)CC1
- IC50 [1]: 7330 nM
- IC50 [2]: 7540 nM
- IC50 [3]: 7340 nM
- IC50 [4]: 7340 nM
- IC50 [5]: 7100 nM
- viability, T/C [8]: 108%
- viability, T/C [9]: 114%
- viability, T/C [10]: 109%
- viability, T/C [11]: 104%
- viability, T/C (second compound 0.1 µM, first compound 3.16 µM): 109%
- viability, T/C (second compound 0.1 µM, first compound 10 µM): 28.3%
- viability, T/C [14]: 111%
- viability, T/C [15]: 106%
- viability, T/C [16]: 122%
- viability, T/C [17]: 109%
- viability, T/C (second compound 0.316 µM, first compound 3.16 µM): 125%
- viability, T/C (second compound 0.316 µM, first compound 10 µM): 28.9%
- viability, T/C [20]: 105%
- viability, T/C [21]: 110%
- viability, T/C [22]: 118%
- viability, T/C [23]: 110%
- viability, T/C (second compound 1 µM, first compound 3.16 µM): 113%
- viability, T/C (second compound 1 µM, first compound 10 µM): 27.4%
- viability, T/C [26]: 104%
- viability, T/C [27]: 114%
- viability, T/C [28]: 110%
- viability, T/C [29]: 114%
- viability, T/C (second compound 3.16 µM, first compound 3.16 µM): 120%
- viability, T/C (second compound 3.16 µM, first compound 10 µM): 27%
- viability, T/C [32]: 107%
- viability, T/C [33]: 102%
- viability, T/C [34]: 108%
- viability, T/C [35]: 110%
- viability, T/C (second compound 10 µM, first compound 3.16 µM): 118%
- viability, T/C (second compound 10 µM, first compound 10 µM): 24.8%

Compound: O=C(C=Cn1cnc(-c2cc(C(F)(F)F)cc(C(F)(F)F)c2)n1)NNc1cnccn1
- viability, T/C (compound 0.00316 µM): 87.2% and 64.4%
- viability, T/C (compound 0.01 µM): 56.7% and 27.2%
- viability, T/C (compound 0.0316 µM): 35.6% and 23.6%
- viability, T/C (compound 0.1 µM): 31.5% and 16.4%
- viability, T/C (compound 0.316 µM): 28.4% and 14.6%
- viability, T/C (compound 1 µM): 23.4% and 14.3%
- IC50 (curve of compound): 14.6 nM and 5.02 nM

Compound: CC(C)c1c(-c2ccccc2)nc2c(C#N)c[nH]n2c1=O
- viability, T/C (compound 0.0316 µM): 97.4% and 97.3%
- viability, T/C (compound 0.1 µM): 97.7% and 103%
- viability, T/C (compound 0.316 µM): 104% and 111%
- viability, T/C (compound 1 µM): 96% and 94.4%
- viability, T/C (compound 3.16 µM): 98.8% and 101%
- viability, T/C (compound 10 µM): 86.8% and 86.7%
- IC50 (curve of compound): > 10000 nM

Compound: O=C(C=Cn1cnc(-c2cc(C(F)(F)F)cc(C(F)(F)F)c2)n1)NNc1cnccn1 + NC1CCC(NC2CC2c2ccccc2)CC1
- IC50 [1]: 18.8 nM
- IC50 [2]: 17.6 nM
- IC50 [3]: 11.4 nM
- IC50 [4]: 17 nM
- IC50 [5]: 20.7 nM
- viability, T/C [6]: 87.4%
- viability, T/C [7]: 65.9%
- viability, T/C [8]: 36.3%
- viability, T/C [9]: 32.7%
- viability, T/C [10]: 28.9%
- viability, T/C [11]: 26.9%
- viability, T/C [12]: 102%
- viability, T/C [13]: 60.6%
- viability, T/C [14]: 39%
- viability, T/C [15]: 31.3%
- viability, T/C [16]: 29.7%
- viability, T/C [17]: 28.1%
- viability, T/C [18]: 87.4%
- viability, T/C [19]: 51%
- viability, T/C [20]: 36.5%
- viability, T/C [21]: 32.7%
- viability, T/C [22]: 28.1%
- viability, T/C [23]: 26.2%
- viability, T/C [24]: 99.5%
- viability, T/C [25]: 55.4%
- viability, T/C [26]: 44%
- viability, T/C [27]: 33%
- viability, T/C [28]: 29.6%
- viability, T/C [29]: 27.2%
- viability, T/C [30]: 99.2%
- viability, T/C [31]: 63.2%
- viability, T/C [32]: 40.7%
- viability, T/C [33]: 36.8%
- viability, T/C [34]: 31.8%
- viability, T/C [35]: 29.5%

Compound: Nc1ccn(C2OC(CO)C(O)C2(F)F)c(=O)n1 (stereo not drawn)
- viability, T/C (compound 0.000949 µM): 24.4% and 23%
- viability, T/C (compound 0.003 µM): 20.5% and 20.8%
- viability, T/C (compound 0.00949 µM): 21.2% and 23%
- viability, T/C (compound 0.03 µM): 23.5% and 25.3%
- viability, T/C (compound 0.0949 µM): 23.3% and 24.1%
- viability, T/C (compound 0.3 µM): 21.9% and 23.4%
- IC50 (curve of compound): < 0.949 nM

Compound: CC(C)CC(NC(=O)CNC(=O)c1cc(Cl)ccc1Cl)B1OC(=O)CC(CC(=O)O)(C(=O)O)O1 (stereo not drawn) + NC1CCC(NC2CC2c2ccccc2)CC1
- IC50 [1]: 6.36 nM
- IC50 [2]: 7.23 nM
- IC50 [3]: 6.46 nM
- IC50 [4]: 6.58 nM
- IC50 [5]: 6.38 nM
- viability, T/C (second compound 0.1 µM, first compound 0.000316 µM): 101%
- viability, T/C (second compound 0.1 µM, first compound 0.001 µM): 112%
- viability, T/C [6]: 74.7%
- viability, T/C [7]: 32.5%
- viability, T/C [8]: 11.9%
- viability, T/C [9]: 1.23%
- viability, T/C (second compound 0.316 µM, first compound 0.000316 µM): 108%
- viability, T/C (second compound 0.316 µM, first compound 0.001 µM): 110%
- viability, T/C [12]: 86.4%
- viability, T/C [13]: 34.8%
- viability, T/C [14]: 11.1%
- viability, T/C [15]: 0.94%
- viability, T/C (second compound 1 µM, first compound 0.000316 µM): 101%
- viability, T/C (second compound 1 µM, first compound 0.001 µM): 107%
- viability, T/C [18]: 83%
- viability, T/C [19]: 29%
- viability, T/C [20]: 10.3%
- viability, T/C [21]: 0.98%
- viability, T/C (second compound 3.16 µM, first compound 0.000316 µM): 101%
- viability, T/C (second compound 3.16 µM, first compound 0.001 µM): 108%
- viability, T/C [24]: 75.8%
- viability, T/C [25]: 34.5%
- viability, T/C [26]: 9.37%
- viability, T/C [27]: 1.62%
- viability, T/C (second compound 10 µM, first compound 0.000316 µM): 111%
- viability, T/C (second compound 10 µM, first compound 0.001 µM): 106%
- viability, T/C [30]: 79%
- viability, T/C [31]: 31.8%
- viability, T/C [32]: 4.25%
- viability, T/C [33]: 0.93%

Compound: CC1COCCN1c1cc(-c2ccnn2C)c2ccnc(-c3ccn[nH]3)c2n1 (stereo not drawn) + NC1CCC(NC2CC2c2ccccc2)CC1
- IC50 [1]: 39.5 nM
- IC50 [2]: 32.1 nM
- IC50 [3]: 33.8 nM
- IC50 [4]: 44.3 nM
- IC50 [5]: 45.8 nM
- viability, T/C [6]: 85%
- viability, T/C [7]: 62.2%
- viability, T/C [8]: 55.7%
- viability, T/C [9]: 41.2%
- viability, T/C [10]: 33.5%
- viability, T/C [11]: 31.5%
- viability, T/C [12]: 89.8%
- viability, T/C [13]: 62%
- viability, T/C [14]: 53.6%
- viability, T/C [15]: 40.4%
- viability, T/C [16]: 34%
- viability, T/C [17]: 30.8%
- viability, T/C [18]: 81.8%
- viability, T/C [19]: 60.2%
- viability, T/C [20]: 50.4%
- viability, T/C [21]: 43.8%
- viability, T/C [22]: 35.1%
- viability, T/C [23]: 28.4%
- viability, T/C [24]: 76.3%
- viability, T/C [25]: 59%
- viability, T/C [26]: 51.3%
- viability, T/C [27]: 47.2%
- viability, T/C [28]: 36.1%
- viability, T/C [29]: 28.3%
- viability, T/C [30]: 88.4%
- viability, T/C [31]: 66.7%
- viability, T/C [32]: 52.7%
- viability, T/C [33]: 45.5%
- viability, T/C [34]: 32.1%
- viability, T/C [35]: 25.5%
